According to patent US12065443B2, “Compounds and pharmaceutical compositions thereof for the treatment of diseases” (priority 2017, dated 2024):
pEC50, pIC50: −log10 of the molar value.

Assays:
SIK2 = molecular target: T1, SIK2 (Homo sapiens, UniProt Q9H0K1); assay: biochemical; settings: 33P radioactive SIK kinase assay, AMARA peptide, 10 μM ATP
T1 construct: purchased ThermoFisher Scientific PV4792
How it was run: (§1)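 AMARA peptide phosphorylation by SIK1–3 is quantified through ^33P uptake from a labeled/unlabeled ATP blend. Staurosporine at 10 μM final defines full inhibition, 1% DMSO the uninhibited signal. Quench uses phosphoric acid; counting follows filter capture.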

SIK1 = molecular target: T2, SIK1 (Homo sapiens, UniProt P57059); assay: biochemical; settings: 33P radioactive SIK kinase assay, AMARA peptide, 10 μM ATP; read-out: SIK1 IC50
T2 construct: purchased Carna Biosciences 02-131
T2 sequence (P57059 whole entry): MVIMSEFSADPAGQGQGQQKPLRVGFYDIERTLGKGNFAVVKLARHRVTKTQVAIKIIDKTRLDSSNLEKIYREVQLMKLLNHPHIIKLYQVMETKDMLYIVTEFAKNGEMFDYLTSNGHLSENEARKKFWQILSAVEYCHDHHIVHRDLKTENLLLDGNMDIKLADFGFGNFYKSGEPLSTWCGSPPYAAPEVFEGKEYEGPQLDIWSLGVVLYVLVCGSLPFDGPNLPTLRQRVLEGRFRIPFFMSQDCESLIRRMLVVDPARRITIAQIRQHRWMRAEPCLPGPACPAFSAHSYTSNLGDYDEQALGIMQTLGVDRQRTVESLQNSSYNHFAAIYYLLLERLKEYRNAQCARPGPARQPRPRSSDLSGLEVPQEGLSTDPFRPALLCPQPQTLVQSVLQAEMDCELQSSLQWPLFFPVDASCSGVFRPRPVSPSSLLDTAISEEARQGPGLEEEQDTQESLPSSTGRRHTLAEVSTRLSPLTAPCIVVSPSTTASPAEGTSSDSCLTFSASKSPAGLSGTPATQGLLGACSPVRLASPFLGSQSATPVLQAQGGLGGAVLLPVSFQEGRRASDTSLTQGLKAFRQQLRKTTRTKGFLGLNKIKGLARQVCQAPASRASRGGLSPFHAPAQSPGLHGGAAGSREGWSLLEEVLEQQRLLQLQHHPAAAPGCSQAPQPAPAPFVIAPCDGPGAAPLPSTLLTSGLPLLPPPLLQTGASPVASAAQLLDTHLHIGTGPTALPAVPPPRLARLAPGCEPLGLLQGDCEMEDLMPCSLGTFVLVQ
How it was run: as §1

SIK3 = molecular target: T3, SIK3 (Homo sapiens, UniProt Q9Y2K2); assay: biochemical
T3 construct: purchased SignalChem S12-11G-100
T3 sequence (Q9Y2K2 whole entry): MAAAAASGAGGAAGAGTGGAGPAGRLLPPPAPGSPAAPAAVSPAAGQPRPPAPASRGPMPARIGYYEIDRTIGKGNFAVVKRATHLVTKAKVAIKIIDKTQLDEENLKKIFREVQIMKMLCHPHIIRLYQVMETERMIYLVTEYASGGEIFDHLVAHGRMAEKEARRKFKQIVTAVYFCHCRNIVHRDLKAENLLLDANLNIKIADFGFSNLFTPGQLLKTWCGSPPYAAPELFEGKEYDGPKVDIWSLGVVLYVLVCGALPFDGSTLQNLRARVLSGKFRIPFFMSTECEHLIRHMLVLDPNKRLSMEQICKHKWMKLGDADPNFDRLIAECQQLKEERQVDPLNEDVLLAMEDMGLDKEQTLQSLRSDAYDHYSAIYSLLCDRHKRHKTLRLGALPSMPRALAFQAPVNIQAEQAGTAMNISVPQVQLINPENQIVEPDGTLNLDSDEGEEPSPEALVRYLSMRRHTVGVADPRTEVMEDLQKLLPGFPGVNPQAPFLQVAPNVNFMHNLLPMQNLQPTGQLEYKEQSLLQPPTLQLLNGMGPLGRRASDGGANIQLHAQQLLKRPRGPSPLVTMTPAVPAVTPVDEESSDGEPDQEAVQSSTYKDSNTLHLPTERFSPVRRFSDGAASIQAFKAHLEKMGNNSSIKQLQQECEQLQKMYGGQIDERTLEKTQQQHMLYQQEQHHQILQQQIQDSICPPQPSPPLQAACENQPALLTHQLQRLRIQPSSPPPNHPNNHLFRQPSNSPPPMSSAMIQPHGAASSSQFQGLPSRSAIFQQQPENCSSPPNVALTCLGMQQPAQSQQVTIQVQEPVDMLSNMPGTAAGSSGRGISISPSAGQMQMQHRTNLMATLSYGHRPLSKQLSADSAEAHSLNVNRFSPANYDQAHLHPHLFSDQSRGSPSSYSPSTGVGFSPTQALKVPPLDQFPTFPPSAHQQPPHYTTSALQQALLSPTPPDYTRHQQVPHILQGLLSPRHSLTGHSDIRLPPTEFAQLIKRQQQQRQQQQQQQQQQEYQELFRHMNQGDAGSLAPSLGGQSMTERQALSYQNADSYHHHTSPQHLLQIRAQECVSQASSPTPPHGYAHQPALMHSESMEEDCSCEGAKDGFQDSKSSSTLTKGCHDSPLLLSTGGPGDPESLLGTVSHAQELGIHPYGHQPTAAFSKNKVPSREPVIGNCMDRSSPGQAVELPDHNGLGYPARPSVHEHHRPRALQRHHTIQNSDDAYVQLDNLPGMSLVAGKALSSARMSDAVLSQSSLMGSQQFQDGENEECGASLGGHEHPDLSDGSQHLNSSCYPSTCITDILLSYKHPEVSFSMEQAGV
How it was run: as §1

[1] = tested on: LPS-induced TNFα secretion in monocyte-derived macrophages (MdM); assay: MdM assay: LPS-triggered TNFα (ELISA); assay type: cell-based, human; settings: Homo sapiens, Macrophage, LPS-triggered TNFα inhibition
Procedure: This assay evaluates illustrative compounds of the invention for their inhibition of LPS-induced TNFα and LPS triggered IL-10 secretion in monocyte-derived macrophages.
PBMCs are isolated from human blood samples (buffycoats). The buffy coat is aseptically transferred into a 50 mL Falcon tube, and diluted 1/2 in PBS. Falcon tubes are filled with 20 mL Lymphoprep™, on top of which 25 mL of the buffy coat is carefully added, tubes are centrifuged for 35 min at 400 g in temperature controlled centrifuge, without brake, at 25° C. PBMCs are aspirated from the white interface layer between sample and Lymphoprep™. PBMCs are washed five times in PBS.
PBMCs are centrifuged at 300×g for 10 min and resuspended at a density of 1.0E07 cells/80 μL Miltenyi buffer (PBS, pH 7.4, 1% FBS, 2 mM EDTA).
Starting from this point of the protocol all steps are performed on ice. 20 μL of CD14+ micro-beads are added per 1.0E07 cells, the tube is mixed and incubated for 15 min in the fridge at 4° C. Cell suspension volume is adjusted to total volume of 100 mL using Miltenyi buffer, mixed gently and subsequently centrifuged for 10 min at 300× g. Supernantant is discarded and cell pellet is resuspended in 12 mL of Miltenyi buffer.
Four LS columns are placed in the MACS Separator (magnet) from Miltenyi Biotec, and are prewet by rinsing with 3 mL of MACS buffer per column. Three mL of cell suspension is added onto the column (max 1*10^8 of labelled cells/column), and columns are subsequently washed 3 times with 3 mL of Miltenyi buffer.
The columns are removed from the magnets, and 5 mL of Miltenyi buffer are added to the column to flush out the CD14+ fraction by pushing the plunger into the column. The flushed fractions are collected in a fresh 50 mL Falcon and volume is adjusted to 30 mL using Miltenyi buffer, cells are centrifuged for 10 min at 300× g. The obtained cell pellet is resuspended in 10 mL RPMI w/o FBS, and cell density is determined using a hematologic analyser (Sysmex XS-500i).
On day 10, MdMs are triggered and compound is added.
A compound dilution plate is made in 100% DMSO by 3-fold dilution of 10 mM stock solution. An intermediate dilution plate (10× final concentration) is made by diluting the compound dilution plate 50-fold in RPMI medium.
Medium is carefully removed from cell plates using multichannel pipette, and replaced by 80 μL fresh medium. 10 μL of the 10× final concentration compound is added to the cells and incubated for 1 hour at 37° C. before addition of trigger. No trigger conditions/trigger conditions are spiked with equal final DMSO concentrations of 0.2% DMSO. 10 μL of 10×LPS (final conc. 200 ng/mL) solution are added to all wells except for the ‘no trigger wells’ where 10 μL medium is added. Supernatant is collected after 2 h (IL-10 determination) and after 20 h (TNFα determination) of LPS triggering.
The plate is then washed once with PBST (PBS+0.05% Tween20) and once with PBS followed by the addition of 100 μL of blocking buffer (1% Bovine Serum Albumin (BSA)-5% Sucrose) and plates are sealed and incubated for at least 4 h at RT. After washing the plate once with PBST and once with PBS, 40 μL of standard or sample are added (TNFα standard curve is prepared using a 1/2 serial dilution starting from 16000 pg/mL; dilutions are made in dilution buffer (PBS+1% BSA)). Plates are washed twice with PBST, and once with PBS, after which 35 μL of the detection antibody is added (final concentration 0.25 μg/mL diluted in dilution buffer) and plates are incubated for at least 2 h at RT. Plates are washed twice with PBST, and once with PBS, where after 35 μL of Strep-HRP conjugate (0.5 μg/mL final concentration diluted in dilution buffer) is added. Plates are incubated in the dark, at RT for at least 45 min but no longer than 1 hour. Plates are washed twice with PBST, and once with PBS.

T1 sequence (Q9H0K1 whole entry): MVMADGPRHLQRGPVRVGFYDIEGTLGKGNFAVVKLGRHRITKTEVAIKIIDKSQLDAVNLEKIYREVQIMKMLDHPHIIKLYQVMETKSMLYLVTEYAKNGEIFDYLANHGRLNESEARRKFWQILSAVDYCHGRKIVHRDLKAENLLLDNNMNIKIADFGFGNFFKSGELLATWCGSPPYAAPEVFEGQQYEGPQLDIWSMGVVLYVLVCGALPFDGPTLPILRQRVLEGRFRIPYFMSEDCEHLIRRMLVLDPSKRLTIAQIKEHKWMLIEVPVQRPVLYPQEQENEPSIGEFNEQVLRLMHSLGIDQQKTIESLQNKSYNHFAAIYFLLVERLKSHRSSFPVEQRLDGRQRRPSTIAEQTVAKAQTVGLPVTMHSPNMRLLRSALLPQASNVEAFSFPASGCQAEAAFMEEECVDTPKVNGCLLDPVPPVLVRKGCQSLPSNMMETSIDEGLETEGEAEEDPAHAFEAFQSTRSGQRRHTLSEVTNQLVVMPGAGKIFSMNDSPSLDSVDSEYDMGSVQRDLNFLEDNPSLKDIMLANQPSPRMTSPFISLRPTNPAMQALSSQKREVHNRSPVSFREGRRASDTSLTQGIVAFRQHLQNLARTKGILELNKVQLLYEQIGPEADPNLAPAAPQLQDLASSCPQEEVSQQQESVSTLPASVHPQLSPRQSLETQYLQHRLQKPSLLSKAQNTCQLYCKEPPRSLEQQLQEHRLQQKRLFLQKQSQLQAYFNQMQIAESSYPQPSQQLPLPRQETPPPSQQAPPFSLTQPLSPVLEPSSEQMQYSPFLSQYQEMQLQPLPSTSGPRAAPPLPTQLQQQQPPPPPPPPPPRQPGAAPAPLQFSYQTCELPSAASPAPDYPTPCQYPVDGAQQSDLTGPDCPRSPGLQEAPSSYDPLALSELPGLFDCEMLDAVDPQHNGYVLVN

Row | pIC50 (SIK2) | pIC50 (SIK1) | pIC50 (SIK3) | pEC50 [1] | Structure (SMILES)
1 | 8.00 to 11.00 | 7.00 to 8.00 | 7.00 to 8.00 | 6.00 to 7.00 | COc1cc(-c2cnn3cc(-c4cnn(C)c4)cnc23)cc(OC)c1C(=O)NCC(F)(F)F [Cpd 52, 2,6-dimethoxy-4-[6-(1-methylpyrazol-4-yl)pyrazolo[1,5-a]pyrimidin-3-yl]-N-(2,2,2-trifluoroethyl)benzamide]
2 | 8.00 to 11.00 | 8.00 to 11.00 | 8.00 to 11.00 | 7.00 to 10.00 | COc1cc(-n2cnc3cc(-c4cnn(CC#N)c4)ccc32)cc(OC(F)F)c1C(=O)NC1CC1 [Cpd 55, 4-[5-[1-(cyanomethyl)pyrazol-4-yl]benzimidazol-1-yl]-N-cyclopropyl-2-(difluoromethoxy)-6-methoxy-benzamide]
3 | < 6.30 | < 6.30 | < 6.30 | 5.30 to 6.00 | COc1cc(-n2cnc3cc(-c4noc(C)n4)ccc32)cc(OC)c1C(=O)NCC(F)(F)F [Cpd 126, 2,6-dimethoxy-4-[5-(5-methyl-1,2,4-oxadiazol-3-yl)benzimidazol-1-yl]-N-(2,2,2-trifluoroethyl)benzamide]
4 | 6.30 to 7.00 | < 6.30 | 6.30 to 7.00 | < 5.30 | COc1cc(-n2cnc3cc(-c4nnc(C)[nH]4)ccc32)cc(OC)c1C(=O)NCC(F)(F)F [Cpd 127, 2,6-dimethoxy-4-[5-(5-methyl-4H-1,2,4-triazol-3-yl)benzimidazol-1-yl]-N-(2,2,2-trifluoroethyl)benzamide]
5 | 8.00 to 11.00 | 7.00 to 8.00 | 7.00 to 8.00 | 6.00 to 7.00 | COc1cc(-n2cnc3cc(-c4cn(C)cn4)ccc32)cc(OC)c1C(=O)NCC(F)(F)F [Cpd 137, 2,6-dimethoxy-4-[5-(1-methylimidazol-4-yl)benzimidazol-1-yl]-N-(2.2,2-trifluoroethyl)benzamide]
6 | 7.00 to 8.00 | 6.30 to 7.00 | 7.00 to 8.00 | 5.30 to 6.00 | COc1cc(-n2cnc3cc(-n4cnc(C)c4)ccc32)cc(OC)c1C(=O)NCC(F)(F)F [Cpd 155, 2.6-dimethoxy-4-[5-(4-methylimidazol-1-yl)benzimidazol-1-yl]-N-(2,2,2-trifluoroethyl)benzamide]
7 | 8.00 to 11.00 | 8.00 to 11.00 | 8.00 to 11.00 | 6.00 to 7.00 | COc1cc(-c2cnc3cc(-c4cnn(CC(=O)OC(C)(C)C)c4)ccn23)cc(OC)c1C(=O)NCC(F)(F)F [Cpd 229, tert-butyl 2-[4-[3-[3,5-dimethoxy-4-(2,2,2-trifluoroethyl-carbamoyl)phenyl]imidazo[1,2-a]pyridin-7-yl]pyrazol-1-yl]acetate]
8 | 8.00 to 11.00 | 8.00 to 11.00 | 8.00 to 11.00 | 7.00 to 10.00 | COc1cc(-c2cnc3cc(-c4cnn(CC(=O)OC(C)C)c4)ccn23)cc(OC)c1C(=O)NCC(F)(F)F [Cpd 231, isopropyl 2-[4-[3-[3,5-dimethoxy-4-(2,2,2-trifluoroethyl-carbamoyl)phenyl]imidazo[1,2-a]pyridin-7-yl]pyrazol-1-yl]acetate]
9 | 8.00 to 11.00 | 7.00 to 8.00 | 8.00 to 11.00 | 7.00 to 10.00 | COc1cc(-c2cnc3cc(-c4cnn(C)c4)ccn23)cc(O)c1C(=O)NCC(F)(F)F [Cpd 233, 2-hydroxy-6-methoxy-4-[7-(1-methylpyrazol-4-yl)imidazo[1,2-a]pvridin-3-yl]-N-(2,2,2-trifluoroethyl)benzamide]
10 | 8.00 to 11.00 | 8.00 to 11.00 | 8.00 to 11.00 | 7.00 to 10.00 | COc1cc(-c2cnc3cc(-c4cnn(CC(=O)OCCF)c4)ccn23)cc(OC)c1C(=O)NCC(F)(F)F [Cpd 235, 2-fluoroethyl 2-[4-[3-[3,5-dimethoxy-4-(2,2,2-trifluoroethyl-carbamoyl)phenyl]imidazo[1,2-a]pyridin-7-yl]pyrazol-1-yl]acetate]
11 | 8.00 to 11.00 | 8.00 to 11.00 | 8.00 to 11.00 | 7.00 to 10.00 | COC(=O)Cn1cc(-c2ccn3c(-c4cc(OC)c(C(=O)NCC(F)(F)F)c(OC)c4)cnc3c2)cn1 [Cpd 236, methyl 2-[4-[3-[3,5-dimethoxy-4-(2,2,2-trifluoroethyl-carbamoyl)phenyl]imidazo[1,2-a]pyridin-7-yl]pyrazol-1-yl]acetate]
12 | 8.00 to 11.00 | 8.00 to 11.00 | 8.00 to 11.00 | 6.00 to 7.00 | COc1cc(-c2cnc3cc(-c4cnn(CC(=O)OC5CCOC5)c4)ccn23)cc(OC)c1C(=O)NCC(F)(F)F (stereo not drawn) [Cpd 237, tetrahydrofuran-3-yl 2-[4-[3-[3,5-dimethoxy-4-(2,2,2-trifluoroethyl-carbamoyl)phenyl]imidazo[1,2-a]pyridin-7-yl]pyrazol-1-yl]acetate]
13 | 8.00 to 11.00 | 8.00 to 11.00 | 8.00 to 11.00 | 7.00 to 10.00 | COc1cc(-c2cnc3cc(-c4cnn(CC(=O)OCC5CCC5)c4)ccn23)cc(OC)c1C(=O)NCC(F)(F)F [Cpd 238, cyclobutylmethyl 2-[4-[3-[3,5-dimethoxy-4-(2,2,2-trifluoroethyl-carbamoyl)phenyl]imidazo[1,2-a]pyridin-7-yl]pyrazol-1-yl]acetate]
14 | 8.00 to 11.00 | 8.00 to 11.00 | 8.00 to 11.00 | < 5.30 | COc1cc(-c2cnc3cc(-c4cnn(C(C)C(=O)O)c4)ccn23)cc(OC)c1C(=O)NCC(F)(F)F (stereo not drawn) [Cpd 254, 2-[4-[3-[3,5-dimethoxy-4-(2,2,2-trifluoroethyl-carbamoyl)phenyl]imidazo[1,2-a]pyridin-7-yl]pyrazol-1-yl]propanoic acid]
15 | 8.00 to 11.00 | 8.00 to 11.00 | 8.00 to 11.00 | 5.30 to 6.00 | COc1cc(-c2cnc3cc(-c4cnn(CCCC(=O)O)c4)ccn23)cc(OC)c1C(=O)NCC(F)(F)F [Cpd 255, 4-[4-[3-[3,5-dimethoxy-4-(2,2,2-trifluoroethyl-carbamoyl)phenyl]imidazo[1,2-a]pyridin-7-yl]pyrazol-1-yl]butanoic acid]
16 | 6.30 to 7.00 | 6.30 to 7.00 | 7.00 to 8.00 | 5.30 to 6.00 | CCNC(=O)c1c(OC)cc(-n2cnc3cc(-c4cccnc4)ccc32)cc1OC [compound 2, N-ethyl-2,6-dimethoxy-4-[5-(3-pyridyl)benzimidazol-1-yl]benzamide]
17 | 8.00 to 11.00 | 7.00 to 8.00 | 8.00 to 11.00 | 6.00 to 7.00 | CCn1cc(-c2cnc3c(-c4cc(OC)c(C(=O)NCC(F)F)c(OC)c4)cnn3c2)cn1 [compound 21, N-(2,2-difluoroethyl)-4-[6-(1-ethylpyrazol-4-yl)pyrazolo[1,5-a]pyrimidin-3-yl]-2,6-dimethoxy-benzamide]
18 | 7.00 to 8.00 | 7.00 to 8.00 | 7.00 to 8.00 | 6.00 to 7.00 | CCn1cc(-c2ccc3c(c2)ncn3-c2cc(OC)c(C(=O)NC3CCC3)c(OC)c2)cn1 [compound 26, N-cyclobutyl-4-[5-(1-ethylpyrazol-4-yl)benzimidazol-1-yl]-2,6-dimethoxy-benzamide]
